Results published in US4073900A, “11β-FLUOROPREGNENES” (Schering Aktiengesellschaft, priority 1975, dated 1978).

Legend:
infantile female rabbits = assay: Clauberg test, progestational activity (McPhail values) after oral administration to infantile female rabbits; format: in vivo
Method: For the progestational effect, the McPhail values were determined in the usual Clauberg test after oral administration to infantile female rabbits. The minimum amount required to achieve a positive effect is expressed by the McPhail value of 1.5.

seminal vesicles = assay: antiandrogen test, seminal vesicle weight in testosterone propionate-treated male castrated rats; format: in vivo; conditions: daily dosage s.c. over 7 days, 0.1 mg testosterone propionate daily s.c., halves organ weight caused by testosterone propionate
Method: The antiandrogenic activity was tested on male castrated rats weighing about 100 g. Starting with 1 week after castration, the test compound was administered in staggered doses subcutaneously over a period of 7 days. Over the same time period, the animals received daily 0.1 mg. of testosterone propionate subcutaneously. On the eighth day, the animals were sacrificed, and the weights of the seminal vesicles were determined. As the ED50, the daily dosage was determined which reduced the organ weight caused solely by testosterone propionate to one-half.

[1] = oral, dose 0.001 mg, infantile female rabbits
[2] = oral, dose 0.003 mg, infantile female rabbits
[3] = oral, dose 0.01 mg, infantile female rabbits

SMILES | Clauberg test, comparison with compound B (infantile female rabbits; compared with the conventional compound B) | Progestational Activity, McPhail (infantile female rabbits; [1]) | Progestational Activity, McPhail (infantile female rabbits; [2]) | Progestational Activity, McPhail (infantile female rabbits; [3]) | Antiandrogenic Activity ED50 Seminal Vesicle (seminal vesicles) [mg] | threshold dose (McPhail 1.5) for the progestational activity (infantile female rabbits; oral, infantile female rabbits, minimum amount for positive effect) [mg]
CC(=O)O[C@]1(C(C)=O)CC[C@H]2[C@@H]3C=C(Cl)C4=CC(=O)[C@@H]5C[C@@H]5[C@]4(C)[C@H]3[C@@H](F)C[C@@]21C [A, 17-acetoxy-6-chloro-11β-fluoro-1α,2α -methylene-4,6-pregnadiene-3,20-dione] | superior | 1.1 | 2.0 | 3.4 | 0.3 to 1.0 | 
CC(=O)O[C@]1(C(C)=O)CC[C@H]2[C@@H]3C=C(Cl)C4=CC(=O)[C@@H]5C[C@@H]5[C@]4(C)[C@H]3CC[C@@]21C [B, 17-acetoxy-6-chloro-1α,2α -methylene-4,6-pregnadiene-3,20-dione, reference compound] |  | 1.0 | 1.5 | 2.9 | 0.1 to 0.3 | 0.003
